# Source: patent US8871753B2, “Macrocyclic compounds and their use as kinase inhibitors” (Incyte Corporation, priority 2008, dated 2014)
# Structures can show the parent of a compound that is named as a salt.
# Tests used:
# Type in all cases: biochemical
# TYK2 = TYK2 (Homo sapiens, UniProt P29597); assay: TYK2 kinase inhibition (Table A1); conditions: Table B1
# [1] = molecular target: T1, human JAK2 (a.a. 828-1132) (Homo sapiens, UniProt O60674); assay: In vitro JAK kinase assay (HTRF, phosphorylation of a biotinylated peptide), JAK2; conditions: Table B1
# T1 construct: JAK2 (a.a. 828-1132); His tag (N); made in house; host or cells: insect cells (baculovirus)
# How it was run: (§1)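 Phosphorylation of a biotinylated peptide by the JAK kinase domain, detected by HTRF with Eu-Py20 and SA-APC. ATP was 90 μM for JAK1, 30 μM for JAK2 and 3 μM for JAK3. Reactions ran 1 h at room temperature and were stopped with EDTA, followed by 40 min antibody binding.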
# [2] = molecular target: T2, human JAK1 (a.a. 837-1142) (Homo sapiens, UniProt P23458); assay: In vitro JAK kinase assay (HTRF, phosphorylation of a biotinylated peptide), JAK1; conditions: Table B1; read-out: JAK1 IC50
# T2 construct: human JAK1 (a.a. 837-1142); His tag (N); made in house; host or cells: insect cells (baculovirus)
# How it was run: as §1
# [3] = molecular target: T3, human JAK3 (a.a. 781-1124) (Homo sapiens, UniProt P52333); assay: In vitro JAK kinase assay (HTRF, phosphorylation of a biotinylated peptide), JAK3; conditions: Table B1
# T3 construct: JAK3 (a.a. 781-1124); His tag (N); made in house; host or cells: insect cells (baculovirus)
# How it was run: as §1
# [4] = molecular target: T4, Recombinant Human Anaplastic Lymphoma Kinase (Homo sapiens, UniProt Q9UM73); assay: ALK HTRF kinase assay; conditions: for IC50: Table B1, cells without percent sign; for ALK % of inhibition at a concentration of 500 nM or 1 mM: compound at a concentration of 500 nM or 1 mM (not specified), cells shown as percentage
# T4 construct: purchased Invitrogen, Carlsbad, Calif
# How it was run: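 Readout was HTRF between a Eu-W1024 anti-phosphotyrosine antibody and streptavidin-APC bound to biotinylated peptide phosphorylated by recombinant human ALK. IC50 values came from a four-parameter logistic fit.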
# T1 sequence (O60674 828-1132): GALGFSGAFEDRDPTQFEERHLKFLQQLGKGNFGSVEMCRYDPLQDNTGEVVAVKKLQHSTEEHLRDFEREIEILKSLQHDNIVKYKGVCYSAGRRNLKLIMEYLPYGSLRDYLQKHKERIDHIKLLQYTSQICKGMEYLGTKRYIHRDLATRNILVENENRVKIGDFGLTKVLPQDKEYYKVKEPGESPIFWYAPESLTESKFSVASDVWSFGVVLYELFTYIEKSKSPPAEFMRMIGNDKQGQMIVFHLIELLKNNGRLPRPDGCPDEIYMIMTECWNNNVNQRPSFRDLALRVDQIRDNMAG
# Chain of TYK2 (P29597 whole entry): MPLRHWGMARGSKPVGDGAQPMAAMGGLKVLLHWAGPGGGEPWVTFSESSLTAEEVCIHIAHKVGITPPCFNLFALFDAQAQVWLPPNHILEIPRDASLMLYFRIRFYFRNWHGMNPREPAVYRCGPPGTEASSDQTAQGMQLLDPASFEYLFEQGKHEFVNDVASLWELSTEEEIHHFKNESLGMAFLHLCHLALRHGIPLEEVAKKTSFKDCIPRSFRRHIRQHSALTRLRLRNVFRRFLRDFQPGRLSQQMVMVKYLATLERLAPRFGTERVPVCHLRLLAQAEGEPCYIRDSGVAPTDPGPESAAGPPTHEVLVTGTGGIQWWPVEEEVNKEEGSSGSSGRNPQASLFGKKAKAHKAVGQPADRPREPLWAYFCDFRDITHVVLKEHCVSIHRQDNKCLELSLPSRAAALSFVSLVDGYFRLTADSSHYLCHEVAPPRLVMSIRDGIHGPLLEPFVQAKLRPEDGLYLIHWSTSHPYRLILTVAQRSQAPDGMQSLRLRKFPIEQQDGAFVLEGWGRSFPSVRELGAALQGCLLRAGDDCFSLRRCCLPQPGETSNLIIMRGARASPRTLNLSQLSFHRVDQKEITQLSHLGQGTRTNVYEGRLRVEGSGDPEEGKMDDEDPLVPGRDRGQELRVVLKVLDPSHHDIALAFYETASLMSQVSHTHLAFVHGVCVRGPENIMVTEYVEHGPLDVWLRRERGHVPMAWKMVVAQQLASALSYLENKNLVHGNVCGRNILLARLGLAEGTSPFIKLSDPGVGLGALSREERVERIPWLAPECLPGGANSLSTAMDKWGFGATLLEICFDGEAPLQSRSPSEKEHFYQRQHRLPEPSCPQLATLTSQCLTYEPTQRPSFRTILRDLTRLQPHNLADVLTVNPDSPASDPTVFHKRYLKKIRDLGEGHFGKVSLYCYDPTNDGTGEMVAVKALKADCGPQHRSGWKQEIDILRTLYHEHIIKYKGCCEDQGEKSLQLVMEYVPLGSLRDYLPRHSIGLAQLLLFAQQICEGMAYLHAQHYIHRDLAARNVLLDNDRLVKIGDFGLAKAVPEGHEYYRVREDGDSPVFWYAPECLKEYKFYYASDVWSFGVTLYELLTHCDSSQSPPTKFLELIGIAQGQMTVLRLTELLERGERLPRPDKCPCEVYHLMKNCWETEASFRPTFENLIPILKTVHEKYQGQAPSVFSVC
# T2 sequence (P23458 849-1154): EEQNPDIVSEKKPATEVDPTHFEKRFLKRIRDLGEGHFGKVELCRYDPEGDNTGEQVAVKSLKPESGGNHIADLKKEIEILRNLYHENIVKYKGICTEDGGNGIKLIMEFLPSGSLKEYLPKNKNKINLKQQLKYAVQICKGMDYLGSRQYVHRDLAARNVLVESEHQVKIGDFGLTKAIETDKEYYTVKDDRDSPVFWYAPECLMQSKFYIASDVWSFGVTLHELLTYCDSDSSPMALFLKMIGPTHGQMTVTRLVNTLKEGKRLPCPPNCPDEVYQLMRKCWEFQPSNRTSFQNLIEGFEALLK
# T4 sequence (Q9UM73 19-1620): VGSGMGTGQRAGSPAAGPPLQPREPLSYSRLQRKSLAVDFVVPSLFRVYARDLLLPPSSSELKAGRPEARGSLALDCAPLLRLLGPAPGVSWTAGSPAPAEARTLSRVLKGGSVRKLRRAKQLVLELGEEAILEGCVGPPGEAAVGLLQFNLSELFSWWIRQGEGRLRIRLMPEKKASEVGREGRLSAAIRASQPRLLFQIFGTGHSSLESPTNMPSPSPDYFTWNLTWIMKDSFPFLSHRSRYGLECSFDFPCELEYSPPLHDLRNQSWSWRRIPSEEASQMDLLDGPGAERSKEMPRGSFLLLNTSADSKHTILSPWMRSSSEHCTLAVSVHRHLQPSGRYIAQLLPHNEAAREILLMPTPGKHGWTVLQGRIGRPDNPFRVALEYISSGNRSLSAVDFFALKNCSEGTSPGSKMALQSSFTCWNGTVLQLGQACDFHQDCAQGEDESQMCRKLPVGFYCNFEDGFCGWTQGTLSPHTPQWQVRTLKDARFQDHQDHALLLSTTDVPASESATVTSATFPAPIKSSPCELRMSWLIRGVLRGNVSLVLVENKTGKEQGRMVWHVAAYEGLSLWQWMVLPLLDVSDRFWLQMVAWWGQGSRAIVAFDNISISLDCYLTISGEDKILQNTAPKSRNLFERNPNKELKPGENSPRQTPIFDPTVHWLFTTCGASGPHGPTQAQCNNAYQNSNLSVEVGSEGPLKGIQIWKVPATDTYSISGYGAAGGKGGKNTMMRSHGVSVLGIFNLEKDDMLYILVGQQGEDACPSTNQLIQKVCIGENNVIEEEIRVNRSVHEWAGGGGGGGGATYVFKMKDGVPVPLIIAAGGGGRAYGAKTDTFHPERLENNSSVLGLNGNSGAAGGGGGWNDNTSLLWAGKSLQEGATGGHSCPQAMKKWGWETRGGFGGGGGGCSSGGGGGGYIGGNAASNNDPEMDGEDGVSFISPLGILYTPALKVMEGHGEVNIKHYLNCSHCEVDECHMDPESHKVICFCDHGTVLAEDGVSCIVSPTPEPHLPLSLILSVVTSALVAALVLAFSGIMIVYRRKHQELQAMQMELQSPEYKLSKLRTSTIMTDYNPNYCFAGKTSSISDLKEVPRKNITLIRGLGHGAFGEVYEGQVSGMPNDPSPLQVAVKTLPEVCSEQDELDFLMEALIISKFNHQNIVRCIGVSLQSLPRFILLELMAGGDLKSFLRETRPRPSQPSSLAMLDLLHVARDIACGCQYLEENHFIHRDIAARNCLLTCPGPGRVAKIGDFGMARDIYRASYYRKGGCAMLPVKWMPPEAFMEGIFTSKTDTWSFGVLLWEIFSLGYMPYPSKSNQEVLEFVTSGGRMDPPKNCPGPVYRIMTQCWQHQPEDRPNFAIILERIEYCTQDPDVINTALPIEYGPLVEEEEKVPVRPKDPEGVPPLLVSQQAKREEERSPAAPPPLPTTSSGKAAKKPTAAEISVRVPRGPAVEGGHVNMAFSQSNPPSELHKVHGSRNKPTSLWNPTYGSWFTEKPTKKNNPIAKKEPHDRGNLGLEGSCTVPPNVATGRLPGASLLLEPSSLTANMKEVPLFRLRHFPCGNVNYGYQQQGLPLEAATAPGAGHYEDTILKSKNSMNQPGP
# T3 sequence (P52333 781-1124): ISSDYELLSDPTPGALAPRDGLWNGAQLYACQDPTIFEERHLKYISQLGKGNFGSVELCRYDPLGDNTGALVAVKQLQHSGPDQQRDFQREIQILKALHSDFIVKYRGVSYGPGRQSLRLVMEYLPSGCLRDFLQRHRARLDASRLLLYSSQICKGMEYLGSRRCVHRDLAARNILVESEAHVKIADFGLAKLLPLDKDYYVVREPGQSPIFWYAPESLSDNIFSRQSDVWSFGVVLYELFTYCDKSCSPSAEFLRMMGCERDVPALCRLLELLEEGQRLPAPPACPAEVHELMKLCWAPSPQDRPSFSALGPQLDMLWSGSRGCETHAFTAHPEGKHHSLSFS
SMILES,IC50 (TYK2) [nM],IC50 [1] [nM],IC50 [2] [nM],IC50 [3] [nM],IC50 [4] [nM],ALK % of inhibition at a concentration of 500 nM or 1 mM [4] [%]
"O=C(Nc1ccccc1Cl)Nc1ccc2cc1CCc1cccc(c1)Nc1ncc(Cl)c(n1)N2 [Example B84, N-(2-Chlorophenyl)-N′-[6-chloro-2,4,8,22-tetraazatetracyclo[14.3.1.1(3,7).1(9,13)]docosa-1(20),3(22),4,6,9(21),10,12,16,18-nonaen-12-yl]urea trifluoroacetate]",4.2,1.3,0.39,9.7,730,–
"O=C(Nc1cccc(Cl)c1)Nc1ccc2cc1CCc1cccc(c1)Nc1ncc(Cl)c(n1)N2 [Example B85, N-(3-Chlorophenyl)-N′-[6-chloro-2,4,8,22-tetraazatetracyclo[14.3.1.1(3,7).1(9,13)]docosa-1(20),3(22),4,6,9(21),10,12,16,18-nonaen-12-yl]urea trifluoroacetate]",2.2,2.7,1.4,39,> 1000,–
"O=C(Nc1ccc(Cl)cc1)Nc1ccc2cc1CCc1cccc(c1)Nc1ncc(Cl)c(n1)N2 [Example B86, N-(4-Chlorophenyl)-N′-[6-chloro-2,4,8,22-tetraazatetracyclo[14.3.1.1(3,7).1(9,13)]docosa-1(20),3(22),4,6,9(21),10,12,16,18-nonaen-12-yl]urea trifluoroacetate]",6.4,2.6,2.7,27,> 1000,–
"CC(C)(C)NC(=O)Nc1ccc2cc1CCc1cccc(c1)Nc1ncc(Cl)c(n1)N2 [Example B87, N-(tert-Butyl)-N′-[6-chloro-2,4,8,22-tetraazatetracyclo[14.3.1.1(3,7).1(9,13)]docosa-1(20),3(22),4,6,9(21),10,12,16,18-nonaen-12-yl]urea trifluoroacetate]",16,4.5,5.3,42,> 1000,–
"O=C(Nc1ccc2cc1CCc1cccc(c1)Nc1ncc(Cl)c(n1)N2)NC1CCCC1 [Example B88, N-[6-Chloro-2,4,8,22-tetraazatetracyclo[14.3.1.1(3,7).1(9,13)]docosa-1(20), 3(22),4,6,9(21),10,12,16,18-nonaen-12-yl]-N′-cyclopentylurea trifluoroacetate]",6.3,1.7,0.74,29,930,–
"O=C(Nc1ccsc1)Nc1ccc2cc1CCc1cccc(c1)Nc1ncc(Cl)c(n1)N2 [Example B89, N-[6-Chloro-2,4,8,22-tetraazatetracyclo[14.3.1.1(3,7).1(9,13)]docosa-1(20),3(22),4,6,9(21),10,12,16,18-nonaen-12-yl]-N′-3-thienylurea trifluoroacetate]",16,2.9,2.4,40,> 1000,–
"Cc1cccc(NC(=O)Nc2ccc3cc2CCc2cccc(c2)Nc2ncc(Cl)c(n2)N3)c1 [Example B90, N-[6-Chloro-2,4,8,22-tetraazatetracyclo[14.3.1.1(3,7).1(9,13)]docosa-1(20), 3(22),4,6,9(21),10,12,16,18-nonaen-12-yl]-N′-(3-methylphenyl)urea trifluoroacetate]",20,7.7,5.2,73,> 1000,–
"Cc1ccccc1NC(=O)Nc1ccc2cc1CCc1cccc(c1)Nc1ncc(Cl)c(n1)N2 [Example B91, N-[6-Chloro-2,4,8,22-tetraazatetracyclo[14.3.1.1(3,7).1(9,13)]docosa-1(20), 3(22),4,6,9(21),10,12,16,18-nonaen-12-yl]-N′-(2-methylphenyl)urea trifluoroacetate]",13,2.7,2.1,28,> 1000,–
"Cc1ccc(NC(=O)Nc2ccc3cc2CCc2cccc(c2)Nc2ncc(Cl)c(n2)N3)cc1 [Example B92, N-[6-Chloro-2,4,8,22-tetraazatetracyclo[14.3.1.1(3,7).1(9,13)]docosa-1(20),3(22),4,6,9(21),10,12,16,18-nonaen-12-yl]-N′-(4-methylphenyl)urea trifluoroacetate]",9.7,5.3,4,61,> 1000,–
"O=C(NCc1ccccc1)Nc1ccc2cc1CCc1cccc(c1)Nc1ncc(Cl)c(n1)N2 [Example B93, N-benzyl-N′-[6-chloro-2,4,8,22-tetraazatetracyclo[14.3.1.1(3,7).1(9,13)]docosa-1(20),3(22),4,6,9(21),10,12,16,18-nonaen-12-yl]urea trifluoroacetate]",12,3.4,2.6,43,> 1000,–
"Cc1noc(C)c1NC(=O)Nc1ccc2cc1CCc1cccc(c1)Nc1ncc(Cl)c(n1)N2 [Example B94, N-[6-Chloro-2,4,8,22-tetraazatetracyclo[14.3.1.1(3,7).1(9,13)]docosa-1(20), 3(22),4,6,9(21),10,12,16,18-nonaen-12-yl]-N′-(3,5-dimethylisoxazol-4-yl)urea trifluoroacetate]",13,3.8,3.1,51,> 1000,–

# Continued, values first:
IC50 (TYK2) [nM],IC50 [1] [nM],IC50 [2] [nM],IC50 [3] [nM],IC50 [4] [nM],ALK % of inhibition at a concentration of 500 nM or 1 mM [4] [%],SMILES
7.8,4.1,2.1,67,> 1000,–,"N#Cc1cccc(NC(=O)Nc2ccc3cc2CCc2cccc(c2)Nc2ncc(Cl)c(n2)N3)c1 [Example B95, N-[6-Chloro-2,4,8,22-tetraazatetracyclo[14.3.1.1(3,7).1(9,13)]docosa-1(20), 3(22),4,6,9(21),10,12,16,18-nonaen-12-yl]-N′-(3-cyanophenyl)urea trifluoroacetate]"
12,6,1,45,> 1000,–,"N#Cc1ccc(NC(=O)Nc2ccc3cc2CCc2cccc(c2)Nc2ncc(Cl)c(n2)N3)cc1 [Example B96, N-[6-Chloro-2,4,8,22-tetraazatetracyclo[14.3.1.1(3,7).1(9,13)]docosa-1(20), 3(22),4,6,9(21),10,12,16,18-nonaen-12-yl]-N′-(4-cyanophenyl)urea trifluoroacetate]"
16,9,3.9,35,–,40,"CCc1ccccc1NC(=O)Nc1ccc2cc1CCc1cccc(c1)Nc1ncc(Cl)c(n1)N2 [Example B97, N-[6-Chloro-2,4,8,22-tetraazatetracyclo[14.3.1.1(3,7).1(9,13)]docosa-1(20), 3(22),4,6,9(21),10,12,16,18-nonaen-12-yl]-N′-(2-ethylphenyl)urea trifluoroacetate]"
38,26,13,91,–,41,"CCc1ccc(NC(=O)Nc2ccc3cc2CCc2cccc(c2)Nc2ncc(Cl)c(n2)N3)cc1 [Example B98, N-[6-Chloro-2,4,8,22-tetraazatetracyclo[14.3.1.1(3,7).1(9,13)]docosa-1(20), 3(22),4,6,9(21),10,12,16,18-nonaen-12-yl]-N′-(4-ethylphenyl)urea trifluoroacetate]"
33,20,7,151,–,37,"CCc1cccc(NC(=O)Nc2ccc3cc2CCc2cccc(c2)Nc2ncc(Cl)c(n2)N3)c1 [Example B99, N-[6-Chloro-2,4,8,22-tetraazatetracyclo[14.3.1.1(3,7).1(9,13)]docosa-1(20), 3(22),4,6,9(21),10,12,16,18-nonaen-12-yl]-N′-(3-ethylphenyl)urea trifluoroacetate]"
8.7,4.7,0.92,40,–,44,"COc1cccc(NC(=O)Nc2ccc3cc2CCc2cccc(c2)Nc2ncc(Cl)c(n2)N3)c1 [Example B100, N-[6-Chloro-2,4,8,22-tetraazatetracyclo[14.3.1.1(3,7).1(9,13)]docosa-1(20), 3(22),4,6,9(21),10,12,16,18-nonaen-12-yl]-N′-(3-methoxyphenyl)urea trifluoroacetate]"
19,10,4.5,26,–,39,"COc1ccc(NC(=O)Nc2ccc3cc2CCc2cccc(c2)Nc2ncc(Cl)c(n2)N3)cc1 [Example B101, N-[6-Chloro-2,4,8,22-tetraazatetracyclo[14.3.1.1(3,7).1(9,13)]docosa-1(20), 3(22),4,6,9(21),10,12,16,18-nonaen-12-yl]-N′-(4-methoxyphenyl)urea trifluoroacetate]"
8.9,3.8,2,33,–,54,"COc1ccccc1NC(=O)Nc1ccc2cc1CCc1cccc(c1)Nc1ncc(Cl)c(n1)N2 [Example B102, N-[6-Chloro-2,4,8,22-tetraazatetracyclo[14.3.1.1(3,7).1(9,13)]docosa-1(20), 3(22),4,6,9(21),10,12,16,18-nonaen-12-yl]-N′-(2-methoxyphenyl)urea trifluoroacetate]"
